From ChEMBL document CHEMBL1201862, “PubChem BioAssay data set” (2004)
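Where inhibition never reached the appropriate level, the endpoint shown equals the highest concentration tested. Otherwise, values were interpolated linearly from a five-concentration, 48-hour dose response in 96-well plates. GI50 marks 50% less growth.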 Activity calls are given as the source filed them. Cut-off read from the data, not from the text of the source: active = GI50 up to about 1.1 µM and inactive = higher.

Tests used:
Assay in all cases: NCI-60 cell line screen, 48 h
K562 = test system: K562
ACHN = test system: ACHN
CAKI-1 = test system: CAKI-1
CCRF-CEM = test system: CCRF-CEM
Malme-3M = test system: Malme-3M
UACC-62 = test system: UACC-62
M14 = test system: M14
RXF 393 = test system: RXF 393
DMS-273 = test system: DMS-273
SNB-75 = test system: SNB-75
HOP-62 = test system: HOP-62
786-0 = test system: 786-0
NCI-H460 = test system: NCI-H460
OVCAR-3 = test system: OVCAR-3
SK-MEL-28 = test system: SK-MEL-28
SK-MEL-2 = test system: SK-MEL-2
KM12 = test system: KM12
HCC 2998 = test system: HCC 2998
HL-60 = test system: HL-60
MOLT-4 = test system: MOLT-4
SF-295 = test system: SF-295
OVCAR-4 = test system: OVCAR-4
SNB-19 = test system: SNB-19
UACC-257 = test system: UACC-257
SN12C = test system: SN12C
NCI-H522 = test system: NCI-H522
A498 = test system: A498
A549 = test system: A549
HOP-92 = test system: HOP-92
HCT-116 = test system: HCT-116
M19-MEL = test system: M19-MEL
LXFL 529 = test system: LXFL 529
UO-31 = test system: UO-31
KM-20L2 = test system: KM-20L2
DMS-114 = test system: DMS-114
HOP-18 = test system: HOP-18
SNB-78 = test system: SNB-78
HT-29 = test system: HT-29
HCT-15 = test system: HCT-15
U-251 = test system: U-251
OVCAR-8 = test system: OVCAR-8
LOX IMVI = test system: LOX IMVI
SW-620 = test system: SW-620
NCI-H226 = test system: NCI-H226
NCI-H23 = test system: NCI-H23
OVCAR-5 = test system: OVCAR-5
SK-OV-3 = test system: SK-OV-3
EKVX = test system: EKVX
IGROV-1 = test system: IGROV-1
DLD-1 = test system: DLD-1
COLO 205 = test system: COLO 205
TK-10 = test system: TK-10
SF-268 = test system: SF-268
SF-539 = test system: SF-539
SK-MEL-5 = test system: SK-MEL-5
SR = test system: SR
RPMI-8226 = test system: RPMI-8226

Cc1nc2ccccc2c(=O)n1-c1ccccc1F
GI50 (K562): > 100 µM (inactive) | GI50 (ACHN): > 100 µM (inactive) | GI50 (CAKI-1): > 100 µM (inactive) | GI50 (CCRF-CEM): > 100 µM (inactive) | GI50 (Malme-3M): > 100 µM (inactive) | GI50 (UACC-62): > 100 µM (inactive) | GI50 (M14): > 100 µM (inactive) | GI50 (RXF 393): > 100 µM (inactive) | GI50 (DMS-273): > 100 µM (inactive) | GI50 (SNB-75): 30.2 µM (inactive) | GI50 (HOP-62): > 100 µM (inactive) | GI50 (786-0): > 100 µM (inactive) | GI50 (NCI-H460): > 100 µM (inactive) | GI50 (OVCAR-3): > 100 µM (inactive) | GI50 (SK-MEL-28): > 100 µM (inactive) | GI50 (SK-MEL-2): > 100 µM (inactive) | GI50 (KM12): > 100 µM (inactive) | GI50 (HCC 2998): > 100 µM (inactive) | GI50 (HL-60): > 100 µM (inactive) | GI50 (MOLT-4): > 100 µM (inactive) | GI50 (SF-295): > 100 µM (inactive) | GI50 (OVCAR-4): > 100 µM (inactive) | GI50 (SNB-19): > 100 µM (inactive) | GI50 (UACC-257): > 100 µM (inactive) | GI50 (SN12C): > 100 µM (inactive) | GI50 (NCI-H522): > 100 µM (inactive) | GI50 (A498): > 100 µM (inactive) | GI50 (A549): > 100 µM (inactive) | GI50 (HOP-92): > 100 µM (inactive) | GI50 (HCT-116): > 100 µM (inactive) | GI50 (M19-MEL): > 100 µM (inactive) | GI50 (LXFL 529): > 100 µM (inactive) | GI50 (UO-31): 74.3 µM (inactive) | GI50 (KM-20L2): > 100 µM (inactive) | GI50 (DMS-114): > 100 µM (inactive) | GI50 (HOP-18): > 100 µM (inactive) | GI50 (SNB-78): > 100 µM (inactive) | GI50 (HT-29): > 100 µM (inactive) | GI50 (HCT-15): > 100 µM | GI50 (U-251): > 100 µM (inactive) | GI50 (OVCAR-8): > 100 µM (inactive) | GI50 (LOX IMVI): > 100 µM (inactive) | GI50 (SW-620): > 100 µM (inactive) | GI50 (NCI-H226): > 100 µM (inactive) | GI50 (NCI-H23): > 100 µM (inactive) | GI50 (OVCAR-5): > 100 µM (inactive) | GI50 (SK-OV-3): > 100 µM (inactive) | GI50 (EKVX): > 100 µM (inactive) | GI50 (IGROV-1): > 100 µM (inactive) | GI50 (DLD-1): > 100 µM (inactive) | GI50 (COLO 205): > 100 µM (inactive) | GI50 (TK-10): > 100 µM (inactive) | GI50 (SF-268): > 100 µM (inactive) | GI50 (SF-539): > 100 µM (inactive) | GI50 (SK-MEL-5): > 100 µM (inactive)

COC1=CC(=O)c2ccccc2C1(CCC=C(C)C)C1=NC(C)(C)CO1 (stereo unspecified)
GI50 (K562): 28.4 µM (inactive) | GI50 (ACHN): 6.62 µM (inactive) | GI50 (CAKI-1): > 100 µM (inactive) | GI50 (CCRF-CEM): 28.6 µM (inactive) | GI50 (SR): 40.3 µM (inactive) | GI50 (Malme-3M): 78.7 µM (inactive) | GI50 (UACC-62): > 100 µM (inactive) | GI50 (M14): > 100 µM (inactive) | GI50 (RXF 393): 56.4 µM (inactive) | GI50 (DMS-273): 72.4 µM (inactive) | GI50 (SNB-75): > 100 µM (inactive) | GI50 (HOP-62): > 100 µM (inactive) | GI50 (786-0): > 100 µM (inactive) | GI50 (NCI-H460): > 100 µM (inactive) | GI50 (OVCAR-3): > 100 µM (inactive) | GI50 (SK-MEL-28): > 100 µM (inactive) | GI50 (SK-MEL-2): 83.6 µM (inactive) | GI50 (KM12): > 100 µM (inactive) | GI50 (RPMI-8226): 32.2 µM (inactive) | GI50 (HL-60): 23.7 µM (inactive) | GI50 (MOLT-4): 31.7 µM (inactive) | GI50 (SF-295): 55.5 µM (inactive) | GI50 (OVCAR-4): 71.9 µM (inactive) | GI50 (SNB-19): 84.9 µM (inactive) | GI50 (UACC-257): 54.6 µM (inactive) | GI50 (SN12C): 94.6 µM (inactive) | GI50 (NCI-H522): 42.4 µM (inactive) | GI50 (A549): 51.6 µM (inactive) | GI50 (HOP-92): 99.3 µM (inactive) | GI50 (HCT-116): 48.4 µM (inactive) | GI50 (M19-MEL): 48.2 µM (inactive) | GI50 (LXFL 529): 50.7 µM (inactive) | GI50 (UO-31): 28.6 µM (inactive) | GI50 (KM-20L2): > 100 µM (inactive) | GI50 (HOP-18): 43.6 µM (inactive) | GI50 (HT-29): 81.8 µM (inactive) | GI50 (HCT-15): 61.1 µM | GI50 (U-251): 80.4 µM (inactive) | GI50 (OVCAR-8): 70.8 µM (inactive) | GI50 (SW-620): > 100 µM (inactive) | GI50 (NCI-H226): > 100 µM (inactive) | GI50 (NCI-H23): 91.2 µM (inactive) | GI50 (SK-OV-3): 86.5 µM (inactive) | GI50 (EKVX): 71.8 µM (inactive) | GI50 (IGROV-1): 84.5 µM (inactive) | GI50 (DLD-1): > 100 µM (inactive) | GI50 (COLO 205): > 100 µM (inactive) | GI50 (TK-10): > 100 µM (inactive) | GI50 (SF-268): > 100 µM (inactive) | GI50 (SF-539): > 100 µM (inactive) | GI50 (SK-MEL-5): > 100 µM (inactive)
